Results reported in ChEMBL document CHEMBL5042556, “Lead Optimization to Advance Protease-Activated Receptor-1 Antagonists in Early Discovery” (J Med Chem, 2022).
One block for each compound: values may come before it.

What was measured:
P-glycoprotein (ABCB1) = P-glycoprotein (ABCB1) (Homo sapiens, UniProt P08183); assay: Effect on human P-glycoprotein expressed in MDCK cells assessed as efflux ratio of apparent permeability across basolateral to apical side over apical to basolateral side (reference value: 0.6 to 0.8); format: ADME, cell-based, MDCKII-LE; details: MDCK-MDR1
Sequence of P-glycoprotein (ABCB1) (P08183 whole entry): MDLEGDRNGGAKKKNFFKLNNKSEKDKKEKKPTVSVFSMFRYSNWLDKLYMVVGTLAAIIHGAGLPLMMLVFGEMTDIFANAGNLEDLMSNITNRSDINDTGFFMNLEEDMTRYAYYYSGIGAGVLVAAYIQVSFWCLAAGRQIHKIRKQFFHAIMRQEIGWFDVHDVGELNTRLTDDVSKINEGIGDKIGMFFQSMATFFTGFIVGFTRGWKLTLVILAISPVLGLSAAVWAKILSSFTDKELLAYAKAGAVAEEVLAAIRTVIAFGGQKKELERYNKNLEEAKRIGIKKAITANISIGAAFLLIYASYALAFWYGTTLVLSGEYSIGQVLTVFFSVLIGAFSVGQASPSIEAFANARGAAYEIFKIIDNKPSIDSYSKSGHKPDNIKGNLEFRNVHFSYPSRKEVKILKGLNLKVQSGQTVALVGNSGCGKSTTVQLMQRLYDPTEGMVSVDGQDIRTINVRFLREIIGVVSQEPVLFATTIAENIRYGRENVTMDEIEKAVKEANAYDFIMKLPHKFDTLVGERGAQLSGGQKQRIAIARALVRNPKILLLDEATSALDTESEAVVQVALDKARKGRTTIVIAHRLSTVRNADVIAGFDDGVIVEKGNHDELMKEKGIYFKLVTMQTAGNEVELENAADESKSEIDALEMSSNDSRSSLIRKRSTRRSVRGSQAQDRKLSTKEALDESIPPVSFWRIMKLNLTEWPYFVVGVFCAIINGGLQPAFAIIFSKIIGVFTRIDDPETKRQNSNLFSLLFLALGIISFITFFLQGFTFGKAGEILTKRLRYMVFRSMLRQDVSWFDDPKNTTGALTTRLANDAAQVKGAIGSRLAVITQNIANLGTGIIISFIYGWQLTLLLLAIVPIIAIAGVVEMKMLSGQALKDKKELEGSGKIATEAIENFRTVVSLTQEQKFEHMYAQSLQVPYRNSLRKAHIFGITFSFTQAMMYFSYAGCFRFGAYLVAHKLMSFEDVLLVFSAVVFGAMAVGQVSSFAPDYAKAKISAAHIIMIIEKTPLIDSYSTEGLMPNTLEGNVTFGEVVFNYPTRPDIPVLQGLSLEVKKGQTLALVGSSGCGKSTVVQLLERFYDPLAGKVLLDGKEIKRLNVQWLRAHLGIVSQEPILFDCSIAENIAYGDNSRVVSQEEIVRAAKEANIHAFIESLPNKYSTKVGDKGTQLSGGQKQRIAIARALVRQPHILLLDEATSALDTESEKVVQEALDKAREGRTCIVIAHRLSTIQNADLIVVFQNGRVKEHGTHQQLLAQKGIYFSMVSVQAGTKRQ

[1] = Clearance in dog hepatocyte measured per 10^6 cells; format: ADME, cell-based, Canis lupus familiaris; details: hepatocytes
[2] = Clearance in human hepatocyte measured per 10^6 cells; format: ADME, cell-based; details: hepatocytes
[3] = Unbound clearance in intravenously dosed dog; format: ADME, organism-based, Canis lupus familiaris; details: in vivo, iv
[4] = Clearance in intravenously dosed dog; format: ADME, organism-based, Canis lupus familiaris; details: in vivo, iv
[5] = Ex vivo inhibition of PAR-1 in cynomolgus monkey whole blood assessed as inhibition of TRAP-induced platelet aggregation at 1 mg/kg, po measured after 24 hrs; format: functional; details: Macaca fascicularis
[6] = Plasma protein binding in rat assessed as unbound fraction; format: ADME, cell-free
[7] = target: T1, Voltage-gated inwardly rectifying potassium channel KCNH2 (Homo sapiens, UniProt Q12809); assay: Inhibition of [35S]MK-499 binding to hERG expressed in HEK293 cells; format: toxicity, cell-based
T1 sequence (Q12809 whole entry): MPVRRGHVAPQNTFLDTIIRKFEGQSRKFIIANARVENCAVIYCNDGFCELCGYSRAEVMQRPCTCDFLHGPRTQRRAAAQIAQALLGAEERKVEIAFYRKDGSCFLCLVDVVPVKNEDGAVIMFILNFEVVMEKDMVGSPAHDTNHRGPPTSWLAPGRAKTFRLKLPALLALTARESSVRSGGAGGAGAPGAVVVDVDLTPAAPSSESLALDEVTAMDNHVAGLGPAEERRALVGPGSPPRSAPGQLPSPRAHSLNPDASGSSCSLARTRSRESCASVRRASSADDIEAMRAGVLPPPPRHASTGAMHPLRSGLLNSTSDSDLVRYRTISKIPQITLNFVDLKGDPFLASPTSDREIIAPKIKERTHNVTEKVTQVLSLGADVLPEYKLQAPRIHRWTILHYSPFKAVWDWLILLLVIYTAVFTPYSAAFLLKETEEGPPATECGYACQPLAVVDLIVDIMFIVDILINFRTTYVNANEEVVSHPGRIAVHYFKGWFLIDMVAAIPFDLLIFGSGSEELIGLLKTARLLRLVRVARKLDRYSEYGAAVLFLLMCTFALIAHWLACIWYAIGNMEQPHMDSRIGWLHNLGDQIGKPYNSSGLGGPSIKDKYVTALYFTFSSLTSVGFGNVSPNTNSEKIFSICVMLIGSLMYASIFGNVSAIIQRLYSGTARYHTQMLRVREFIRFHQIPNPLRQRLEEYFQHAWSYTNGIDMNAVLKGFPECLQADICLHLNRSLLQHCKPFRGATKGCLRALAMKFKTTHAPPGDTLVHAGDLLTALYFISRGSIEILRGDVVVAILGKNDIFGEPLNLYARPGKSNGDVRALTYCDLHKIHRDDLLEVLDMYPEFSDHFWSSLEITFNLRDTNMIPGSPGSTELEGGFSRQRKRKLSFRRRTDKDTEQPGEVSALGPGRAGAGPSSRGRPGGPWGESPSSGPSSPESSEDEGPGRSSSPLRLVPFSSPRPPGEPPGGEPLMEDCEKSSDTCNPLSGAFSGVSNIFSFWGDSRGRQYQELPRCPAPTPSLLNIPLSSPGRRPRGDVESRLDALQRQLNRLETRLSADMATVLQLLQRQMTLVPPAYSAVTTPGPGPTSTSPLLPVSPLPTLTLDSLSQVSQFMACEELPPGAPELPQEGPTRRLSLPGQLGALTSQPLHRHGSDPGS

[8] = Volume of distribution in rat at 0.3 mg/kg, iv; format: ADME, organism-based; details: in vivo
[9] = target: T1, Voltage-gated inwardly rectifying potassium channel KCNH2; assay: Inhibition of [35S]MK-499 binding to hERG expressed in HEK293 cells at 60 uM; format: toxicity, cell-based
[10] = Oral bioavailability in rat; format: ADME, organism-based; details: in vivo
[11] = Apparent permeability in MDCKII-LE cells; format: ADME, cell-based, Canis lupus familiaris; details: dog, MDCK
[12] = Ex vivo inhibition of PAR-1 in cynomolgus monkey whole blood assessed as inhibition of TRAP-induced platelet aggregation at 0.3 mg/kg, po measured after 24 hrs; format: functional; details: Macaca fascicularis
[13] = Clearance in rat hepatocyte measured per 10^6 cells; format: ADME, cell-based; details: hepatocytes
[14] = Clearance in rat at 3 mg/kg, iv; format: ADME, organism-based; details: in vivo
[15] = MRT in rat at 1 mg/kg, iv; format: ADME, organism-based; details: in vivo
[16] = Unbound volume of distribution in intravenously dosed dog; format: ADME, organism-based, Canis lupus familiaris; details: in vivo, iv
[17] = Clearance in mouse hepatocyte measured per 10^6 cells; format: ADME, cell-based; details: hepatocytes
[18] = MRT in rat at 3 mg/kg, iv; format: ADME, organism-based; details: in vivo
[19] = Plasma protein binding in dog assessed as unbound fraction; format: ADME, cell-free, Canis lupus familiaris
[20] = target: T2, Proteinase-activated receptor 1 (Homo sapiens, UniProt P25116); assay: Antagonist activity at human PAR-1 expressed in HEK293 cells assessed as reduction in TRAP induced calcium signal at 3 uM by FLIPR analysis; format: functional, cell-based
T2 sequence (P25116 whole entry): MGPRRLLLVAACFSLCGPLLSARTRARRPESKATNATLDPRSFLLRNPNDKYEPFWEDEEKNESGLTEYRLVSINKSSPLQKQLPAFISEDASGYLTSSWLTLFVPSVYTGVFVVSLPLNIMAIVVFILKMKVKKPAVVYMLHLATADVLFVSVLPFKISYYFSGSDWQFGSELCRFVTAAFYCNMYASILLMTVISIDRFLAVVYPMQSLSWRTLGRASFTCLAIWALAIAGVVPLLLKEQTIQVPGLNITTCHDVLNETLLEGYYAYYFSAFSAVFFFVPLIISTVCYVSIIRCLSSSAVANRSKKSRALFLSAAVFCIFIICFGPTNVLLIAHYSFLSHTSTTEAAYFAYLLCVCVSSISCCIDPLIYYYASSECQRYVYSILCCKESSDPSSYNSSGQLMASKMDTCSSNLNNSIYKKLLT

[21] = Plasma protein binding in cynomolgus monkey assessed as unbound fraction; format: ADME, cell-free, Macaca fascicularis
[22] = MRT in intravenously dosed cynomolgus monkey; format: ADME, organism-based, Macaca fascicularis; details: in vivo, iv
P-glycoprotein = assay: Effect on rat P-glycoprotein expressed in MDCK cells assessed as efflux ratio of apparent permeability across basolateral to apical side over apical to basolateral side (reference value: 0.6 to 0.8); format: ADME, cell-based, MDCKII-LE; details: MDCK-MDR1
[23] = Unbound volume of distribution in rat at 3 mg/kg, iv; format: ADME, organism-based; details: in vivo
[24] = Unbound volume of distribution in intravenously dosed cynomolgus monkey; format: ADME, organism-based, Macaca fascicularis; details: in vivo, iv
[25] = Oral bioavailability in cynomolgus monkey; format: ADME, organism-based, Macaca fascicularis; details: in vivo
[26] = MRT in cynomolgus monkey at 0.3 mg/kg, iv; format: ADME, organism-based, Macaca fascicularis; details: in vivo
[27] = MRT in intravenously dosed dog; format: ADME, organism-based, Canis lupus familiaris; details: in vivo, iv
[28] = Oral bioavailability in dog; format: ADME, organism-based, Canis lupus familiaris; details: in vivo
[29] = Unbound clearance in intravenously dosed cynomolgus monkey; format: ADME, organism-based, Macaca fascicularis; details: in vivo, iv
[30] = Clearance in intravenously dosed cynomolgus monkey; format: ADME, organism-based, Macaca fascicularis; details: in vivo, iv
[31] = Volume of distribution in intravenously dosed cynomolgus monkey; format: ADME, organism-based, Macaca fascicularis; details: in vivo, iv
[32] = Unbound clearance in rat at 3 mg/kg, iv; format: ADME, organism-based; details: in vivo
[33] = MRT in cynomolgus monkey at 0.3 mg/kg, po; format: ADME, organism-based, Macaca fascicularis; details: in vivo

efflux ratio (P-glycoprotein (ABCB1)): > 65
CLint [1]: 11.8 µL/min/1e6 cells
CLint [2]: 7.3 µL/min/1e6 cells
CL free [3]: 112 mL/min/kg
clearance [4]: 5.6 mL/min/kg
fraction unbound [6]: 0.06
Vd [8]: 1.2 L/kg
bioavailability [10]: 10%
Papp [11]: 32.3 ×10⁻⁶ cm/s
CLint [13]: 17.2 µL/min/1e6 cells
clearance [14]: 46 mL/min/kg
Vdu [16]: 42 L/kg
CLint [17]: 19.7 µL/min/1e6 cells
MRT [18]: 0.44 h
fraction unbound [19]: 0.05
IC50 [20]: 0.007 µM
fraction unbound [21]: 0.06
MRT [22]: 1.8 h
efflux ratio (P-glycoprotein): > 71
Vdu [23]: 19 L/kg
Vdu [24]: 15 L/kg
bioavailability [25]: 13%
MRT [27]: 6.2 h
bioavailability [28]: 19%
CL free [29]: 140 mL/min/kg
clearance [30]: 7.7 mL/min/kg
Vd [31]: 0.81 L/kg
CL free [32]: 742 mL/min/kg
Compound: CCNC(=O)N1C[C@H]2[C@H](C)[C@@H](C)[C@H](/C=C/c3ccc(-c4ccccc4C#N)cn3)[C@@H]3[C@@H](C)OC(=O)[C@@]32C1
inhibition in vivo at 1 mg/kg [5]: 100%
IC50 [7]: 9.2 µM
IC50 [9]: 9 µM
inhibition in vivo at 0.3 mg/kg [12]: 100%

IC50 [20]: 0.028 µM
Compound: C[C@@H]1[C@@H](C)[C@@H]2CN(C)C[C@@]23C(=O)O[C@H](C)[C@H]3[C@H]1/C=C/c1ccc(-c2ccccc2C#N)cn1
IC50 [7]: 14.8 µM

MRT [15]: 5.5 h
IC50 [20]: 0.008 µM
MRT [33]: > 20 h
Compound: CC[C@H]1[C@H](/C=C/c2ccc(-c3ccccc3C#N)cn2)[C@@H]2[C@@H](C)OC(=O)[C@]2(O)CC1(F)F
IC50 [7]: 17 µM

IC50 [20]: 0.007 µM
Compound: CNC(=O)N1C[C@H]2[C@H](C)[C@@H](C)[C@H](/C=C/c3ccc(-c4ccccc4C#N)cn3)[C@@H]3[C@@H](C)OC(=O)[C@@]32C1
IC50 [7]: 50 µM

More lines, now with the values behind:

Compound: Cc1cccc(-c2ccc(/C=C/[C@@H]3[C@@H]4[C@@H](C)OC(=O)[C@]4(O)CC(F)(F)[C@H]3C)nc2)c1C#N
efflux ratio (P-glycoprotein (ABCB1)): 1.5
CLint [1]: 41.7 µL/min/1e6 cells
CLint [2]: 4.3 µL/min/1e6 cells
CL free [3]: 1238 mL/min/kg
clearance [4]: 26 mL/min/kg
inhibition in vivo at 1 mg/kg [5]: 100%
fraction unbound [6]: 0.03
IC50 [7]: 9 µM
Vd [8]: 3.1 L/kg
IC50 [9]: 9 µM
bioavailability [10]: 44%
Papp [11]: 41.9 ×10⁻⁶ cm/s
inhibition in vivo at 0.3 mg/kg [12]: 100%
CLint [13]: 2.3 µL/min/1e6 cells
clearance [14]: 37 mL/min/kg
MRT [15]: 2.2 h
Vdu [16]: 171 L/kg
CLint [17]: 11.4 µL/min/1e6 cells
MRT [18]: 1.4 h
fraction unbound [19]: 0.02
IC50 [20]: 0.003 µM
fraction unbound [21]: 0.02
MRT [22]: 3 h
efflux ratio (P-glycoprotein): 3.3
Vdu [23]: 115 L/kg
Vdu [24]: 60 L/kg
bioavailability [25]: 57%
MRT [26]: 3.2 h
MRT [27]: 2.3 h
bioavailability [28]: 5%
CL free [29]: 344 mL/min/kg
clearance [30]: 8.6 mL/min/kg
Vd [31]: 1.5 L/kg
CL free [32]: 1370 mL/min/kg

Compound: CC1=NO[C@@]2(C1)C[C@H]1C(=O)O[C@H](C)[C@H]1[C@@H](c1ccc(-c3cccc(F)c3)cn1)[C@@H]2C
IC50 [20]: 0.134 µM

Compound: C[C@H]1[C@H](c2ccc(-c3cccc(F)c3)cn2)[C@@H]2[C@@H](C)OC(=O)[C@@H]2C[C@@H]1C
IC50 [20]: 0.003 µM

Compound: C[C@H]1OC(=O)[C@]2(O)CC(F)(F)[C@@H](C)[C@H](/C=C/c3ccc(-c4cccc(F)c4)cn3)[C@H]12
IC50 [7]: 29 µM
IC50 [20]: 0.008 µM
MRT [33]: 68 h
